“And” between values parts separate entries of the source, which are not always exact repeats. Identical values can stand only once.
Assay: molar heat capacity at constant pressure
Details: 101.33 kPa, Crystal, Small (less than 1 g) adiabatic calorimetry

O=P([O-])([O-])[O-].[La+3] [lanthanum orthophosphate]
Details	molar heat capacity at constant pressure
2 K	0.00122 J/K/mol
4 K	0.01153 J/K/mol
6 K	0.03674 J/K/mol
8 K	0.08437 J/K/mol
10 K	0.1669 J/K/mol
12 K	0.2994 J/K/mol
14 K	0.4971 J/K/mol
16 K	0.7738 J/K/mol
18 K	1.141 J/K/mol
20 K	1.605 J/K/mol
25 K	3.201 J/K/mol
25.03 K	3.418 J/K/mol
25.8 K	3.691 J/K/mol
26.57 K	3.997 J/K/mol
27.34 K	4.269 J/K/mol
28.12 K	4.62 J/K/mol
28.89 K	4.94 J/K/mol
29.68 K	5.294 J/K/mol
30 K	5.306 J/K/mol
30.46 K	5.695 J/K/mol
31.24 K	6.098 J/K/mol
32.03 K	6.511 J/K/mol
32.86 K	6.925 J/K/mol
33.65 K	7.346 J/K/mol
34.44 K	7.659 J/K/mol
35 K	7.89 J/K/mol
35.24 K	8.049 J/K/mol
36.04 K	8.576 J/K/mol
36.84 K	9.023 J/K/mol
37.64 K	9.523 J/K/mol
38.44 K	9.994 J/K/mol
39.25 K	10.48 J/K/mol
40 K	10.82 J/K/mol
40.05 K	10.95 J/K/mol
40.86 K	11.44 J/K/mol
41.67 K	11.92 J/K/mol
42.48 K	12.4 J/K/mol
43.29 K	12.88 J/K/mol
44.1 K	13.34 J/K/mol
44.92 K	13.87 J/K/mol
45 K	13.97 J/K/mol
45.76 K	14.39 J/K/mol
48.2 K	16.03 J/K/mol
49.02 K	16.52 J/K/mol
49.84 K	17.11 J/K/mol
50 K	17.23 J/K/mol
50.65 K	17.64 J/K/mol
51.47 K	18.19 J/K/mol
52.29 K	18.72 J/K/mol
53.11 K	19.27 J/K/mol
53.93 K	19.79 J/K/mol
54.75 K	20.27 J/K/mol
55.57 K	20.78 J/K/mol
56.4 K	21.36 J/K/mol
57.22 K	21.86 J/K/mol
58.04 K	22.41 J/K/mol
58.89 K	22.97 J/K/mol
59.72 K	23.49 J/K/mol
60 K	23.73 J/K/mol
60.54 K	24.01 J/K/mol
61.37 K	24.55 J/K/mol
62.2 K	25.1 J/K/mol
63.03 K	25.6 J/K/mol
63.86 K	26.14 J/K/mol
64.69 K	26.66 J/K/mol
65.52 K	27.24 J/K/mol
66.35 K	27.76 J/K/mol
67.19 K	28.22 J/K/mol
68.02 K	28.62 J/K/mol
68.86 K	29.07 J/K/mol
69.7 K	29.48 J/K/mol
70 K	29.93 J/K/mol
70.93 K	30.26 J/K/mol
72.58 K	31.21 J/K/mol
73.58 K	31.56 J/K/mol
74.82 K	32.17 J/K/mol
76.07 K	33.31 J/K/mol
77.32 K	33.78 J/K/mol
78.55 K	34.74 J/K/mol
80 K	35.68 J/K/mol
80.58 K	36.06 J/K/mol
82.23 K	36.9 J/K/mol
83.88 K	37.58 J/K/mol
85.53 K	38.39 J/K/mol
87.18 K	39.57 J/K/mol
88.83 K	40.58 J/K/mol
90 K	40.96 J/K/mol
90.48 K	41.33 J/K/mol
92.13 K	42.17 J/K/mol
93.78 K	42.97 J/K/mol
95.43 K	43.79 J/K/mol
97.08 K	44.53 J/K/mol
100 K	45.82 J/K/mol
101.86 K	46.91 J/K/mol
102.42 K	47.17 J/K/mol
104.27 K	47.95 J/K/mol
104.88 K	48.25 J/K/mol
106.71 K	49.05 J/K/mol
107.34 K	49.42 J/K/mol
109.16 K	50.14 J/K/mol
109.8 K	50.46 J/K/mol
110 K	50.3 J/K/mol
111.6 K	51.16 J/K/mol
112.25 K	51.55 J/K/mol
114.04 K	52.08 J/K/mol
114.7 K	52.52 J/K/mol
116.47 K	53.12 J/K/mol
117.16 K	53.55 J/K/mol
119.61 K	54.49 J/K/mol
120 K	54.48 J/K/mol
122.06 K	55.51 J/K/mol
124.51 K	56.3 J/K/mol
126.96 K	57.27 J/K/mol
129.4 K	58.21 J/K/mol
130 K	58.4 J/K/mol
131.85 K	59.09 J/K/mol
134.29 K	59.99 J/K/mol
136.73 K	60.84 J/K/mol
139.17 K	61.67 J/K/mol
140 K	62.1 J/K/mol
141.61 K	62.6 J/K/mol
144.05 K	63.49 J/K/mol
146.46 K	64.31 J/K/mol
148.9 K	65.12 J/K/mol
150 K	65.6 J/K/mol
151.33 K	65.92 J/K/mol
153.76 K	66.8 J/K/mol
156.18 K	67.59 J/K/mol
158.61 K	68.21 J/K/mol
160 K	68.93 J/K/mol
161.03 K	69.15 J/K/mol
163.45 K	69.96 J/K/mol
165.87 K	70.75 J/K/mol
168.29 K	71.39 J/K/mol
170 K	72.09 J/K/mol
170.7 K	72.25 J/K/mol
173.11 K	73.03 J/K/mol
175.52 K	73.72 J/K/mol
177.92 K	74.42 J/K/mol
180 K	75.12 J/K/mol
180.31 K	75.07 J/K/mol
182.7 K	75.83 J/K/mol
185.04 K	76.53 J/K/mol
187.44 K	77.24 J/K/mol
189.83 K	77.9 J/K/mol
190 K	78.01 J/K/mol
192.21 K	78.51 J/K/mol
199.36 K	80.46 J/K/mol
200 K	80.78 J/K/mol
202.14 K	81.27 J/K/mol
205.3 K	82.08 J/K/mol
208.46 K	82.89 J/K/mol
210 K	83.44 J/K/mol
211.61 K	83.64 J/K/mol
214.75 K	84.46 J/K/mol
217.89 K	85.24 J/K/mol
220 K	85.98 J/K/mol
220.27 K	86.55 J/K/mol
223.51 K	87.38 J/K/mol
226.73 K	88.15 J/K/mol
229.94 K	88.77 J/K/mol
230 K	88.41 J/K/mol
233.13 K	89.33 J/K/mol
236.34 K	89.95 J/K/mol
239.53 K	90.87 J/K/mol
240 K	90.75 J/K/mol
242.69 K	91.56 J/K/mol
245.83 K	92.05 J/K/mol
248.99 K	92.61 J/K/mol
250 K	92.99 J/K/mol
252.14 K	93.33 J/K/mol
255.28 K	94.2 J/K/mol
258.37 K	94.93 J/K/mol
260 K	95.13 J/K/mol
261.31 K	95.4 J/K/mol
264.37 K	95.93 J/K/mol
267.41 K	96.5 J/K/mol
270 K	97.19 J/K/mol
270.48 K	97.19 J/K/mol
273.52 K	97.78 J/K/mol
276.54 K	98.45 J/K/mol
279.55 K	99 J/K/mol
280 K	99.17 J/K/mol
282.53 K	99.55 J/K/mol
285.49 K	100.2 J/K/mol
288.42 K	100.6 J/K/mol
290 K	101.1 J/K/mol
291.33 K	101.2 J/K/mol
294.21 K	101.7 J/K/mol
297.05 K	102.3 J/K/mol
299.79 K	102.8 J/K/mol
300 K	102.9 J/K/mol
302.76 K	103.4 J/K/mol
306.59 K	104.1 J/K/mol
310.93 K	105 J/K/mol
315.5 K	105.8 J/K/mol
320 K	106.5 J/K/mol and 106.3 J/K/mol
324.45 K	106.9 J/K/mol
340 K	109.4 J/K/mol
360 K	112.3 J/K/mol
373 K	113.9 J/K/mol
400 K	117.1 J/K/mol
450 K	122 J/K/mol
500 K	126 J/K/mol
550 K	129.4 J/K/mol
600 K	132.4 J/K/mol
650 K	135.2 J/K/mol
700 K	137.7 J/K/mol
750 K	140.1 J/K/mol
800 K	142.4 J/K/mol
850 K	144.6 J/K/mol
900 K	146.7 J/K/mol
950 K	148.7 J/K/mol
1000 K	150.8 J/K/mol
1050 K	152.8 J/K/mol
1100 K	154.7 J/K/mol
1150 K	156.6 J/K/mol
1200 K	158.5 J/K/mol
1250 K	160.4 J/K/mol
1300 K	162.3 J/K/mol
1350 K	164.2 J/K/mol
1400 K	166 J/K/mol
1450 K	167.9 J/K/mol
1500 K	169.7 J/K/mol
1550 K	171.5 J/K/mol
1600 K	173.4 J/K/mol

Source: the NIST ThermoML archive (doi:10.1016/j.tca.2008.05.004)
